A short description of the assay: neuroprotective activity of single enantiomers (test not specified). From the text:
A chiral synthetic procedure was also developed to provide single enantiomers of certain stereoisomeric compounds of Formula I. The procedure is illustrated in Scheme III. This synthesis results in a Formula I compound with a chiral center in the piperazine ring. […] While both enantiomers were neuroprotective, the S-(-)-enantiomer had about 30 times the activity of the R-(+)-enantiomer. [drawing 11]

Where a name gives a salt, the structure may show the parent alone.

For `Cl.Cl.Cl.NC(=O)[C@H]1CN(Cc2nc(-c3ccccc3)c(-c3ccccc3)o2)CCN1CC(=O)Nc1c(Cl)cc(N)cc1Cl.O` [R-(+)-enantiomer, R-(+)-2-(aminocarbonyl)-N-(4-amino-2,6-dichlorophenyl)-4-[(4,5-diphenyl-2-oxazolyl)methyl]-1-piperazineacetamide trihydrochloride monohydrate], the neuroprotection entry is reported as “neuroprotective”.

For `NC(=O)[C@@H]1CN(Cc2nc(-c3ccccc3)c(-c3ccccc3)o2)CCN1CC(=O)Nc1c(Cl)cc(N)cc1Cl` [S-(-)-enantiomer, S-(-)-2-(aminocarbonyl)-N-(4-amino-2,6-dichlorophenyl)-4-[(4,5-diphenyl-2-oxazolyl)methyl]-1-piperazineacetamide Trihydrochloride], the neuroprotection result is “neuroprotective”. Also, the “activity relative to the R-(+)-enantiomer” value (neuroprotective activity) is recorded as “about 30 times”.

The record behind these values is US5382584A, “Adenosine re-uptake inhibiting derivatives of diphenyl oxazoles, thiazoles and imidazoles” (Bristol-Myers Squibb Company, priority 1994, dated 1995).
